For orientation: IC50 means the midpoint of a concentration-inhibition curve. Lower therefore signals inhibition by little substance.

The target in this test is T1, Akt3 (Homo sapiens, UniProt Q9Y243).
T1 construct: endogenous in cells; host or cells: human CD4+/CD45RA+/CD25- naive T cells under Treg induction conditions
Kind of test: Akt3 inhibition activity. In kind it is cell-based.

T1 sequence (Q9Y243 whole entry): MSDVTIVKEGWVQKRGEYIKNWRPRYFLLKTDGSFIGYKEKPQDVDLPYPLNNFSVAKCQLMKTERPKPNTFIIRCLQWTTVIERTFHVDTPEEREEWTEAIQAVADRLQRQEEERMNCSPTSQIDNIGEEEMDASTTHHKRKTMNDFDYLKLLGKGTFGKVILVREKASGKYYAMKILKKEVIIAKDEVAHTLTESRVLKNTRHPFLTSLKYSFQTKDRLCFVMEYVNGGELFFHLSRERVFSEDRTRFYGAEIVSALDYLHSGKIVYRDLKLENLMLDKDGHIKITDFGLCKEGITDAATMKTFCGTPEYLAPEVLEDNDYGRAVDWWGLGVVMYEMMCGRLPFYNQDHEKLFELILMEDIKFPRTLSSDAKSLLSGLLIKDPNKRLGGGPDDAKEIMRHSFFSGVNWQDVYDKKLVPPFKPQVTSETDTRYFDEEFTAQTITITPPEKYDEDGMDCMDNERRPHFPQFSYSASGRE

In turn, `Cc1cc(Nc2ccncc2)cc(N2Cc3cc(Nc4ccncc4)ccc3C2=O)c1` [Compound 26, 2-(3-methyl-5-(pyridin-4-ylamino)phenyl)-5-(pyridin-4-ylamino)isoindolin-1-one] returned an IC50 of less than 1000 nM. To `Cc1ccc(N2Cc3cc(Nc4ccncc4)ccc3C2=O)cc1Nc1ccncc1` [Compound 27, 2-(4-methyl-3-(pyridin-4-ylamino)phenyl)-5-(pyridin-4-ylamino)isoindolin-1-one] belongs less than 1000 nM. Compound `Cc1cc(Nc2ccncc2)cc2c1C(=O)N(c1cccc(Nc3ccncc3)c1)C2` [Compound 30, 7-methyl-5-(pyridin-4-ylamino)-2-(3-(pyridin-4-ylamino)phenyl)isoindolin-1-one] had an IC50 of less than 1000 nM. `Cc1cc2c(cc1Nc1ccncc1)CN(c1cccc(Nc3ccncc3)c1)C2=O` [Compound 31, 6-methyl-5-(pyridin-4-ylamino)-2-(3-(pyridin-4-ylamino)phenyl)isoindolin-1-one] came in with an IC50 of less than 5000 nM. As to `O=C1c2ccc(Nc3ccncc3)c(F)c2CN1c1cccc(Nc2ccncc2)c1` [Compound 32, 4-fluoro-5-(pyridin-4-ylamino)-2-(3-(pyridin-4-ylamino)phenyl)isoindolin-1-one], the IC50 was less than 5000 nM.

On to `O=C1c2cc(F)c(Nc3ccncc3)cc2CN1c1cccc(Nc2ccncc2)c1` [Compound 33, 6-fluoro-5-(pyridin-4-ylamino)-2-(3-(pyridin-4-ylamino)phenyl)isoindolin-1-one], for which the concentration for half-maximal inhibition (IC50) is less than 1000 nM. Compound `O=C1c2c(F)cc(Nc3ccncc3)cc2CN1c1cccc(Nc2ccncc2)c1` [Compound 34, 7-fluoro-5-(pyridin-4-ylamino)-2-(3-(pyridin-4-ylamino)phenyl)isoindolin-1-one] had a half-maximal inhibitory concentration (IC50) of less than 5000 nM.

In turn, `O=C1c2ccc(Nc3ccncc3)cc2CN1c1cc(F)cc(Nc2ccncc2)c1` [Compound 37, 2-(3-fluoro-5-(pyridin-4-ylamino)phenyl)-5-(pyridin-4-ylamino)isoindolin-1-one] had an IC50 of less than 2000 nM. `O=C1c2ccc(Nc3ccncc3)cc2CN1c1ccc(F)c(Nc2ccncc2)c1` [Compound 38, 2-(4-fluoro-3-(pyridin-4-ylamino)phenyl)-5-(pyridin-4-ylamino)isoindolin-1-one] came in with an IC50 of less than 1000 nM. `Cc1cc(Nc2ccc(-c3nc4cc(Nc5ccnc(C)c5)ccc4o3)cc2)ccn1` [Compound 39, N-(2-methylpyridin-4-yl)-2-(4-((2-methylpyridin-4-yl)amino)phenyl)benzo[d]oxazol-5-amine]: the IC50 is less than 5000 nM. As for `Cc1cc(Nc2cccc(-c3nc4cc(Nc5ccnc(C)c5)ccc4o3)c2)ccn1` [Compound 40, N-(2-methylpyridin-4-yl)-2-(3-((2-methylpyridin-4-yl)amino)phenyl)benzo[d]oxazol-5-amine], the IC50 was less than 2000 nM. `Cc1cc(Nc2ccc(-c3nc4ccc(Nc5ccnc(C)c5)cc4o3)cc2)ccn1` [Compound 41, N-(2-methylpyridin-4-yl)-2-(4-((2-methylpyridin-4-yl)amino)phenyl)benzo[d]oxazol-6-amine] returned a concentration for half-maximal inhibition (IC50) of less than 5000 nM. For `Cc1cc(Nc2cccc(-c3nc4ccc(Nc5ccnc(C)c5)cc4o3)c2)ccn1` [Compound 42, N-(2-methylpyridin-4-yl)-2-(3-((2-methylpyridin-4-yl)amino)phenyl)benzo[d]oxazol-6-amine], the half-maximal inhibitory concentration (IC50) is less than 5000 nM. With `Cc1cc(Nc2ccc3oc(-c4cccc(Nc5ccc(F)cc5)c4)nc3c2)ccn1` [Compound 43, 2-(3-((4-fluorophenyl)amino)phenyl)-N-(2-methylpyridin-4-yl)benzo[d]oxazol-5-amine], the 50% inhibitory concentration (IC50) is less than 5000 nM. Next, `Cc1cc(Nc2cc(C)c3c(c2)CN(c2cccc(Nc4ccncc4)c2)C3=O)ccn1` [Compound 44, 7-methyl-5-((2-methylpyridin-4-yl)amino)-2-(3-(pyridin-4-ylamino)phenyl)isoindolin-1-one]: less than 1000 nM. As for `Cc1cc(Nc2cccc(N3Cc4cc(Nc5ccnc(C)c5)cc(C)c4C3=O)c2)ccn1` [Compound 45, 7-methyl-5-((2-methylpyridin-4-yl)amino)-2-(3-((2-methylpyridin-4-yl)amino)phenyl)isoindolin-1-one], the IC50 is less than 1000 nM.

The record behind these values is US20260159498A1, “AKT3 MODULATORS” (GEORGIAMUNE LLC, priority 2021, published 2026).
